Reference: US20220054588A1, “USE OF SAP FOR THE TREATMENT OF EUROTIOMYCETES FUNGI INFECTIONS” (HUMANITAS MIRASOLE S.P.A., priority 2018, published 2022)

B1: recombinant murine SAP: recombinant murine SAP from mouse myeloma cell line NSO (R&D Systems) (protein, UniProt P12246 21-224, looked up)
Serum amyloid P-component: QTDLKRKVFVFPRESETDHVKLIPHLEKPLQNFTLCFRTYSDLSRSQSLFSYSVKGRDNELLIYKEKVGEYSLYIGQSKVTVRGMEEYLSPVHLCTTWESSSGIVEFWVNGKPWVKKSLQREYTVKAPPSIVLGQEQDNYGGGFQRSQSFVGEFSDLYMWDYVLTPQDILFVYRDSPVNPNILNWQALNYEINGYVVIRPRVWD

Tests used:
[1] = system: membrane attack complex (MAC; C5b-C9) on A. fumigatus conidia; assay: FACS analysis of MAC (C5b-C9) deposition on A. fumigatus conidia in human sera; type: biochemical
Description: FIG. 12 depicts the therapeutic efficacy of SAP in treatment of invasive aspergillosis. a) b) c) survival of transiently immunosuppressed wt mice after injection with the indicated doses of AF conidia. The curve of untreated mice (n=3) with cyclophosphamide is also shown (a). Human SAP (4 mg/Kg) was injected at 2 h and 24 h after infection. a) AF 5.10^7, n=17; AF 5.10^7+SAP, n=15; b) AF 1.10^7, n=7; AF 1.10^7+SAP, n=8; c) AF 5.10^6, n=8; AF 5.10^6+SAP, n=10.***, P<0.005 SAP-treated vs. saline (Mantel-Cox test). One-way ANOVA, P<0.0001. d) lung CFU in mice treated with cyclophosphamide and infected with 1.10^7 AF conidia.*, P<0.05 (Mann-Whitney test). e) quantitative analysis of AF viability performed using a resazurin-based assay. Plasma (30%) from wt and Apcs^−/− mice were incubated (1 min) with 1.5×10^5 AF conidia pre-opsonized or not with SAP. Results are mean±SD of red fluorescence (excitation/emission 535/580-610 nm) intensity of the resazurin once reduced to resorufin within viable cells. Effect of Posaconazole (POC; 1 μM) exposure is also shown. Results are mean±SEM relative to the condition without serum (grey symbols) of two experiments performed with n=10 mice/group. […] AF viability assay performed in sera depleted from complement components. Figure summarizes one experiment out of 5 also conducted with serum 10%. Mean±SD.*, P<0.05; **, P<0.01 (unpaired t-test). g) and h) FACS analysis of MAC deposition on AF conidia (1×10^7) in presence of sera depleted from complement components (e) and the effect of SAP (f). Mean±SEM of 2 experiments performed out of 4. e, f,*, P<0.05;**, P<0.01;***, P<0.005;****, P<0.001; (Mann-Whitney test).
(§1) Complement deposition on Aspergillus fumigatus. A volume of 10 μl PBS, pH 7.4, containing 1×10^7 conidia eventually opsonized with murine SAP (100 μg/ml per 1×10^9 conidia, 1 h at r.t.) was incubated (37° C.) in round bottom wells of Corning® 96-well polypropylene microplates for the indicated time points with 20 μl mouse plasma-heparin or 20 μl human NS and complement depleted sera (diluted in PBS at 10% and 30%). Complement deposition was blocked by addition of EDTA (10 mM final concentration) and by cooling in ice. After centrifugation (2000 rpm, 10 min at 4° C.), when indicated supernatant was collected for C5a measurement by ELISA. […] Conidia were then incubated (1 h, at 4° C.) with Alexa Fluor® 488 and 647-conjugated species-specific cross-adsorbed detection antibodies (2 μg/ml; ThermoFisher Scientific-Molecular Probes) and analysed by BD FACS Canto™ II Flow Cytometer (BD Biosciences) using forward and side scatter parameters to gate on at least 8,000 conidia. […] Results were expressed as frequency of conidia showing fluorescence compared with irrelevant controls and as geometric conidia MFI.

[2] = system: complement activation on A. fumigatus conidia; assay: Complement C3 deposition on A. fumigatus conidia and C5a formation in mouse plasma; type: biochemical; settings: Sap-opsonised conidia
Description: FIG. 6 depicts the effect of SAP on complement activation on A. fumigatus. a) FACS analysis of plasma C3 deposition on AF conidia (1×10^7) opsonized or not with Sap. b) plasma C5a levels after incubation with AF conidia shown in a. a) and b) n=10 mouse plasma/genotype. b) representative experiment out of three performed. a) and b) Mean±SEM.*, P<0.05;**, P<0.01;***, P<0.005;****, P<0.0001 (unpaired t-test).
as §1
Proteins. […] Purity of the recombinant protein was assessed by SDS-PAGE followed by silver staining. […] SAP levels were measured in mouse plasma by ELISA (DuoSet ELISA; R&D Systems). Murine TNF-α, CCL2, MPO were measured by ELISA (DuoSet ELISA; R&D Systems). Murine C5a was measured either in plasma-heparin or in BALFs previously stored at −80° C. by DuoSet ELISA (R&D Systems) maintaining EDTA (10 mM) throughout the assay in order to stop the activation of the complement cascade.

Molecule	MAC formation on conidia ([1]; FB-depleted serum)	MAC formation on conidia ([1]; FH-depleted serum)	MAC formation on conidia ([1]; MBL-depleted serum)	MAC formation on conidia ([1]; normal serum, 1 min and 30 min)	in vitro C3 deposition on A. fumigatus conidia ([2]; Apcs−/− and wt plasma)	C5a formation ([2]; Apcs−/− plasma, 1, 5, 10, 20 min)	C5a formation ([2]; wt plasma)
human native SAP: Native SAP from human serum purchased by Merck-Millipore; Serum Amyloid P component, SEQ ID NO: 1	enhanced	enhanced	enhanced	enhanced	–	–	–
B1	–	–	–	–	rescued or increased	rescued	increased
